Key:
[1] = tested on: velvetleaf; assay: Test Example 4: herbicidal effect by soil treatment (Table 19, symbol M); format: in vivo, velvetleaf (Abutilon theophrasti); settings: amount of applied herbicide 320 g/ha
How it was run: (§1)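 Seeds were sown in sterilized diluvial soil and covered with about 1.5 cm of soil. An emulsion formulation diluted with water to a predetermined herbicide amount was sprayed evenly onto the soil surface. Plants grew in a greenhouse at 25° C. to 30° C., and the effect was scored three weeks after application using criteria from an earlier test.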

[2] = tested on: velvetleaf; assay: Test Example 5: herbicidal effect by foliage application, plastic box (Table 20, symbol M); format: in vivo, velvetleaf (Abutilon theophrasti); settings: foliage application, 320 g/ha, evaluated three weeks after application
How it was run: (§2)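 Plants sown in sterilized diluvial soil and grown 14 days in a greenhouse at 25° C to 30° C, then sprayed on the foliage with the compound's emulsion diluted in water to a predetermined herbicide amount. Injury to weeds and crops scored three weeks after application on a visual rating scale.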

[3] = tested on: Chinese sprangletop; assay: Test Example 3: herbicidal effect by foliage application, Wagner pot (Table 18, symbol D); format: in vivo, chinese sprangletop (Leptochloa chinensis); settings: amount of applied herbicide 320 g/ha
How it was run: (§3)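 Plants were sown in alluvial soil held under 0.1–0.5 cm standing water and grown 14 days in a greenhouse at 25–30 °C. An emulsifiable formulation, water-diluted to the set dose, was then sprayed onto the foliage, and effects were scored three weeks later using previously defined criteria.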

[4] = tested on: wild oat; assay: Test Example 4: herbicidal effect by soil treatment (Table 19, symbol I); format: in vivo, wild oat (Avena fatua); settings: amount of applied herbicide 320 g/ha
How it was run: as §1

[5] = tested on: green foxtail; assay: Test Example 5: herbicidal effect by foliage application, plastic box (Table 20, symbol G); format: in vivo, green foxtail (Setaria viridis); settings: foliage application, 320 g/ha, evaluated three weeks after application
How it was run: as §2

[6] = tested on: barnyard grass; assay: Test Example 4: herbicidal effect by soil treatment (Table 19, symbol H); format: in vivo, barnyard grass (Echinochloa crus-galli); settings: amount of applied herbicide 320 g/ha
How it was run: as §1

[7] = tested on: barnyard grass; assay: Test Example 3: herbicidal effect by foliage application, Wagner pot (Table 18, symbol H); format: in vivo, barnyard grass (Echinochloa crus-galli); settings: amount of applied herbicide 320 g/ha
How it was run: as §3

[8] = tested on: windgrass; assay: Test Example 4: herbicidal effect by soil treatment (Table 19, symbol L); format: in vivo, windgrass (Apera spica-venti); settings: amount of applied herbicide 320 g/ha
How it was run: as §1

[9] = tested on: Japanese bulrush; assay: Test Example 1: herbicidal activity, application before weed generation under submerged conditions (Table 16, symbol B); format: in vivo, Japanese bulrush (Schoenoplectus juncoides); settings: 320 g/ha applied herbicide
How it was run: (§4)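 Alluvial soil was flooded to 4 cm depth, weed seeds were sown mixed and 2.5-leaf rice seedlings were transplanted. On sowing day, the compound's emulsion, diluted in water to a set dose, was applied to the water surface. Plants grew at 25–30 °C and were scored 0–5 after three weeks.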

[10] = tested on: windgrass; assay: Test Example 5: herbicidal effect by foliage application, plastic box (Table 20, symbol L); format: in vivo, windgrass (Apera spica-venti); settings: foliage application, 320 g/ha, evaluated three weeks after application
How it was run: as §2

[11] = tested on: chickweed; assay: Test Example 5: herbicidal effect by foliage application, plastic box (Table 20, symbol P); format: in vivo, common chickweed (Stellaria media); settings: foliage application, 320 g/ha, evaluated three weeks after application
How it was run: as §2

[12] = tested on: lambsquarters; assay: Test Example 4: herbicidal effect by soil treatment (Table 19, symbol O); format: in vivo, lambsquarters (Chenopodium album); settings: amount of applied herbicide 320 g/ha
How it was run: as §1

[13] = tested on: rice flat sedge; assay: Test Example 3: herbicidal effect by foliage application, Wagner pot (Table 18, symbol E); format: in vivo, rice flat sedge (Cyperus iria); settings: amount of applied herbicide 320 g/ha
How it was run: as §3

[14] = tested on: wild oat; assay: Test Example 5: herbicidal effect by foliage application, plastic box (Table 20, symbol I); format: in vivo, wild oat (Avena fatua); settings: foliage application, 320 g/ha, evaluated three weeks after application
How it was run: as §2

[15] = tested on: oval-leafed pondweed; assay: Test Example 1: herbicidal activity, application before weed generation under submerged conditions (Table 16, symbol C); format: in vivo, oval-leafed pondweed (Monochoria vaginalis); settings: 320 g/ha applied herbicide
How it was run: as §4

[16] = tested on: blackgrass; assay: Test Example 5: herbicidal effect by foliage application, plastic box (Table 20, symbol J); format: in vivo, blackgrass (Alopecurus myosuroides); settings: foliage application, 320 g/ha, evaluated three weeks after application
How it was run: as §2

[17] = tested on: late watergrass; assay: Test Example 2: herbicidal activity, application during weed generation under submerged conditions (Table 17, symbol A); format: in vivo, late watergrass (Echinochloa oryzicola); settings: AAH 320 g/ha; application during weed generation, submerged conditions
How it was run: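 3-wk visual-criteria score after one water-surface dose. Emulsion formulation, water-diluted to set rate; applied at 1–2 leaf stage; alluvial soil, 4 cm standing water; seeds co-sown; greenhouse 25–30° C.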

Row | Compound | M: velvetleaf, herbicidal effect rating [1] | herbicidal effect on M: velvetleaf (criteria 0-5) [2] | herbicidal effect on D: Chinese sprangletop [3] | I: wild oat, herbicidal effect rating [4] | herbicidal effect on G: green foxtail (criteria 0-5) [5] | H: barnyard grass, herbicidal effect rating [6] | herbicidal effect on H: barnyard grass [7] | L: windgrass, herbicidal effect rating [8] | Herbicidal effect on B: Japanese bulrush (grade 0-5) [9] | herbicidal effect on L: windgrass (criteria 0-5) [10] | herbicidal effect on P: chickweed (criteria 0-5) [11] | O: lambsquarters, herbicidal effect rating [12] | herbicidal effect on E: rice flat sedge [13] | herbicidal effect on I: wild oat (criteria 0-5) [14] | Herbicidal effect on C: oval-leafed pondweed (grade 0-5) [15] | herbicidal effect on J: blackgrass (criteria 0-5) [16] | herbicidal effect rating, A: late watergrass [17] | other results
1 | CCCC(=O)Oc1c(C)nn(C)c(=O)c1-c1c(-c2ccc(Br)cc2)sc2ccc(F)cc12 [2-206] | 2 (Herbicidal rate of 20% or more and less than 40%) | 5 (Herbicidal rate of 90% or more (almost completely withered)) | 4 (Herbicidal rate of 70% or more and less than 90%) | 0 (Herbicidal rate of 5% or less (almost no effect)) | 3 (Herbicidal rate of 40% or more and less than 70%) | 2 (Herbicidal rate of 20% or more and less than 40%) | 5 (Herbicidal rate of 90% or more (almost completely withered)) | 2 (Herbicidal rate of 20% or more and less than 40%) | 5 (Herbicidal rate of 90% or more (almost completely withered)) | 4 (Herbicidal rate of 70% or more and less than 90%) | 5 (Herbicidal rate of 90% or more (almost completely withered)) | 4 (Herbicidal rate of 70% or more and less than 90%) | 5 (Herbicidal rate of 90% or more (almost completely withered)) | 4 (Herbicidal rate of 70% or more and less than 90%) | 4 (Herbicidal rate of 70% or more and less than 90%) | 4 (Herbicidal rate of 70% or more and less than 90%) | 4 (Herbicidal rate of 70% or more and less than 90%) | –
2 | CCc1ccc(-c2sc3ccc(F)cc3c2-c2c(O)c(C)nn(C)c2=O)cc1 [2-207] | 5 (Herbicidal rate of 90% or more (almost completely withered)) | 5 (Herbicidal rate of 90% or more (almost completely withered)) | 5 (Herbicidal rate of 90% or more (almost completely withered)) | 0 (Herbicidal rate of 5% or less (almost no effect)) | 4 (Herbicidal rate of 70% or more and less than 90%) | 2 (Herbicidal rate of 20% or more and less than 40%) | 4 (Herbicidal rate of 70% or more and less than 90%) | 3 (Herbicidal rate of 40% or more and less than 70%) | 4 (Herbicidal rate of 70% or more and less than 90%) | 4 (Herbicidal rate of 70% or more and less than 90%) | 5 (Herbicidal rate of 90% or more (almost completely withered)) | 5 (Herbicidal rate of 90% or more (almost completely withered)) | 5 (Herbicidal rate of 90% or more (almost completely withered)) | 3 (Herbicidal rate of 40% or more and less than 70%) | 3 (Herbicidal rate of 40% or more and less than 70%) | 4 (Herbicidal rate of 70% or more and less than 90%) | 3 (Herbicidal rate of 40% or more and less than 70%) | –
3 | Cc1nn(C)c(=O)c(-c2c(-c3cccc(OCC(C)C)c3)sc3ccc(F)cc23)c1O [2-221] | 4 (Herbicidal rate of 70% or more and less than 90%) | 5 (Herbicidal rate of 90% or more (almost completely withered)) | 5 (Herbicidal rate of 90% or more (almost completely withered)) | 0 (Herbicidal rate of 5% or less (almost no effect)) | 5 (Herbicidal rate of 90% or more (almost completely withered)) | 5 (Herbicidal rate of 90% or more (almost completely withered)) | 5 (Herbicidal rate of 90% or more (almost completely withered)) | 3 (Herbicidal rate of 40% or more and less than 70%) | 5 (Herbicidal rate of 90% or more (almost completely withered)) | 5 (Herbicidal rate of 90% or more (almost completely withered)) | 5 (Herbicidal rate of 90% or more (almost completely withered)) | 4 (Herbicidal rate of 70% or more and less than 90%) | 5 (Herbicidal rate of 90% or more (almost completely withered)) | 5 (Herbicidal rate of 90% or more (almost completely withered)) | 5 (Herbicidal rate of 90% or more (almost completely withered)) | 5 (Herbicidal rate of 90% or more (almost completely withered)) | 5 (Herbicidal rate of 90% or more (almost completely withered)) | –
4 | Cc1nn(C)c(=O)c(-c2c(-c3cccc(OC(C)(C)C)c3)sc3ccc(F)cc23)c1O [2-223] | – | 5 (Herbicidal rate of 90% or more (almost completely withered)) | 3 (Herbicidal rate of 40% or more and less than 70%) | – | 1 (Herbicidal rate of 5% or more and less than 20%) | – | 5 (Herbicidal rate of 90% or more (almost completely withered)) | – | 4 (Herbicidal rate of 70% or more and less than 90%) | 5 (Herbicidal rate of 90% or more (almost completely withered)) | 5 (Herbicidal rate of 90% or more (almost completely withered)) | – | 4 (Herbicidal rate of 70% or more and less than 90%) | 1 (Herbicidal rate of 5% or more and less than 20%) | 2 (Herbicidal rate of 20% or more and less than 40%) | 0 (Herbicidal rate of 5% or less (almost no effect)) | 3 (Herbicidal rate of 40% or more and less than 70%) | herbicidal effect on M: velvetleaf [1]: 1 (Herbicidal rate of 5% or more and less than 20%); herbicidal effect on I: wild oat [4]: 0 (Herbicidal rate of 5% or less (almost no effect)); herbicidal effect on H: barnyard grass [6]: 3 (Herbicidal rate of 40% or more and less than 70%); herbicidal effect on L: windgrass [8]: 0 (Herbicidal rate of 5% or less (almost no effect)); herbicidal effect on O: lambsquarters [12]: 3 (Herbicidal rate of 40% or more and less than 70%)

— US20230085307A1, “PYRIDAZINONE COMPOUND AND HERBICIDE” (NISSAN CHEMICAL CORPORATION, priority 2019, published 2023)
